Test results: patent publication US9458113B2 (Boehringer Ingelheim International GmbH, priority 2014, dated 2016)

Target: Human neutrophil elastase (Homo sapiens (Human), UniProt P08246)
Experiment: Human Neutrophil Elastase Assay
Type: biochemical
Details: substrate MeOSuc-Ala-Ala-Pro-Val-AMC 250 μM, pH 7.5

Sequence of Human neutrophil elastase (P08246 30-247): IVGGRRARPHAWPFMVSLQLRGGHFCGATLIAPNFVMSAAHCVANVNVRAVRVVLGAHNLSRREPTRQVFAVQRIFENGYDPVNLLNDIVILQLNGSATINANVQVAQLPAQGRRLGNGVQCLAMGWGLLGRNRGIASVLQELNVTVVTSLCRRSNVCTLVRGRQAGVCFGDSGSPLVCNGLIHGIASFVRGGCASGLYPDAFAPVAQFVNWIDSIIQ

IC50 [nM]	SMILES
< 1	CN1C(=O)N(c2cccc(C(F)(F)F)c2)C2=C(C(=O)CCC2)C1c1ccc(C#N)cc1C(N)=O (single isomer, unassigned) [Example 7a, 5-Cyano-2-[3-methyl-2,5-dioxo-1-(3-trifluoromethyl-phenyl)-1,2,3,4,5,6,7,8-octahydro-quinazolin-4-yl]-benzamide]
5.5	CCNC(=O)c1cc(C#N)ccc1C1C2=C(CCC2=O)N(c2cccc(C(F)(F)F)c2)C(=O)N1C (stereo not drawn) [Example 1.2]
3.7	C#CCNC(=O)c1cc(C#N)ccc1C1C2=C(CCC2=O)N(c2cccc(C(F)(F)F)c2)C(=O)N1C (stereo not drawn) [Example 1.4]
3.4	CN1C(=O)N(c2cccc(C(F)(F)F)c2)C2=C(C(=O)CC2)C1c1ccc(C#N)cc1C(=O)N1CCCC1 (stereo not drawn) [Example 1.10]
2.9	CN(CCO)C(=O)c1cc(C#N)ccc1C1C2=C(CCC2=O)N(c2cccc(C(F)(F)F)c2)C(=O)N1C (stereo not drawn) [Example 1.13]
5	CN1C(=O)N(c2cccc(C(F)(F)F)c2)C2=C(C(=O)CC2)C1c1ccc(C#N)cc1C(=O)NCCCO (stereo not drawn) [Example 1.15]
9.5	CN1C(=O)N(c2cccc(C(F)(F)F)c2)C2=C(C(=O)CC2)C1c1ccc(C#N)cc1C(=O)NCC(C)(C)O (stereo not drawn) [Example 1.19]
7.1	CN1C(=O)N(c2cccc(C(F)(F)F)c2)C2=C(C(=O)CC2)C1c1ccc(C#N)cc1C(=O)NCC(F)(F)F (stereo not drawn) [Example 1.21]
4.3	CN1C(=O)N(c2cccc(C(F)(F)F)c2)C2=C(C(=O)CC2)C1c1ccc(C#N)cc1C(=O)NC1CCS(=O)(=O)C1 (stereo not drawn) [Example 1.28]
7.4	CN1CCC(NC(=O)c2cc(C#N)ccc2C2C3=C(CCC3=O)N(c3cccc(C(F)(F)F)c3)C(=O)N2C)C1 (stereo not drawn) [Example 1.30]
5	CN1C(=O)N(c2cccc(C(F)(F)F)c2)C2=C(C(=O)CC2)C1c1ccc(C#N)cc1C(=O)NCc1cn[nH]c1 (stereo not drawn) [Example 1.38]
3.8	CN1C(=O)N(c2cccc(C(F)(F)F)c2)C2=C(C(=O)CC2)C1c1ccc(C#N)cc1C(=O)NCc1ncco1 (stereo not drawn) [Example 1.41]
2	CN1C(=O)N(c2cccc(C(F)(F)F)c2)C2=C(C(=O)CC2)C1c1ccc(C#N)cc1C(=O)NCc1ccon1 (stereo not drawn) [Example 1.43]
3.4	CN1C(=O)N(c2cccc(C(F)(F)F)c2)C2=C(C(=O)CC2)C1c1ccc(C#N)cc1C(=O)NCc1cocn1 (stereo not drawn) [Example 1.44]
4.1	CN1C(=O)N(c2cccc(C(F)(F)F)c2)C2=C(C(=O)CC2)C1c1ccc(C#N)cc1C(=O)NCc1ccncc1 (stereo not drawn) [Example 1.48]

Further lines, the molecule ahead of its results:

SMILES	IC50 [nM]
CN1C(=O)N(c2cccc(C(F)(F)F)c2)C2=C(C(=O)CC2)C1c1ccc(C#N)cc1C(N)=O (stereo not drawn) [Example 1, 5-Cyano-2-[3-methyl-2,5-dioxo-1-(3-trifluoromethyl-phenyl)-2,3,4,5,6,7-hexahydro-1H-cyclopentapyrimidin-4-yl]-benzamide]	5.3
CN(C)C(=O)c1cc(C#N)ccc1C1C2=C(CCC2=O)N(c2cccc(C(F)(F)F)c2)C(=O)N1C (stereo not drawn) [Example 1.3]	5.4
CN1C(=O)N(c2cccc(C(F)(F)F)c2)C2=C(C(=O)CC2)C1c1ccc(C#N)cc1C(=O)NCC#N (stereo not drawn) [Example 1.5]	3.1
CN1C(=O)N(c2cccc(C(F)(F)F)c2)C2=C(C(=O)CC2)C1c1ccc(C#N)cc1C(=O)NC1CC1 (stereo not drawn) [Example 1.6]	6.3
CN1C(=O)N(c2cccc(C(F)(F)F)c2)C2=C(C(=O)CC2)C1c1ccc(C#N)cc1C(=O)N1CCC1 (stereo not drawn) [Example 1.7]	2.2
CN1C(=O)N(c2cccc(C(F)(F)F)c2)C2=C(C(=O)CC2)C1c1ccc(C#N)cc1C(=O)NCCO (stereo not drawn) [Example 1.8]	5.7
CN1C(=O)N(c2cccc(C(F)(F)F)c2)C2=C(C(=O)CC2)C1c1ccc(C#N)cc1C(=O)NCCF (stereo not drawn) [Example 1.9]	5.5
CN1C(=O)N(c2cccc(C(F)(F)F)c2)C2=C(C(=O)CC2)C1c1ccc(C#N)cc1C(=O)N1CC(O)C1 (stereo not drawn) [Example 1.11]	2.5
CN1C(=O)N(c2cccc(C(F)(F)F)c2)C2=C(C(=O)CC2)C1c1ccc(C#N)cc1C(=O)NC1COC1 (stereo not drawn) [Example 1.12]	5.3
COCCNC(=O)c1cc(C#N)ccc1C1C2=C(CCC2=O)N(c2cccc(C(F)(F)F)c2)C(=O)N1C (stereo not drawn) [Example 1.14]	6.5
CN1C(=O)N(c2cccc(C(F)(F)F)c2)C2=C(C(=O)CC2)C1c1ccc(C#N)cc1C(=O)NCC(F)F (stereo not drawn) [Example 1.16]	6
CN1C(=O)N(c2cccc(C(F)(F)F)c2)C2=C(C(=O)CC2)C1c1ccc(C#N)cc1C(=O)NC1CCOC1 (stereo not drawn) [Example 1.18]	6.9
COCCCNC(=O)c1cc(C#N)ccc1C1C2=C(CCC2=O)N(c2cccc(C(F)(F)F)c2)C(=O)N1C (stereo not drawn) [Example 1.20]	5.7
CN1C(=O)N(c2cccc(C(F)(F)F)c2)C2=C(C(=O)CC2)C1c1ccc(C#N)cc1C(=O)N1CCC(O)CC1 (stereo not drawn) [Example 1.22]	10.3
CN1C(=O)N(c2cccc(C(F)(F)F)c2)C2=C(C(=O)CC2)C1c1ccc(C#N)cc1C(=O)NC1CCOCC1 (stereo not drawn) [Example 1.23]	8.4
COCCCN(C)C(=O)c1cc(C#N)ccc1C1C2=C(CCC2=O)N(c2cccc(C(F)(F)F)c2)C(=O)N1C (stereo not drawn) [Example 1.24]	3.3
CN1CCC(NC(=O)c2cc(C#N)ccc2C2C3=C(CCC3=O)N(c3cccc(C(F)(F)F)c3)C(=O)N2C)CC1 (stereo not drawn) [Example 1.25]	8
CN1C(=O)N(c2cccc(C(F)(F)F)c2)C2=C(C(=O)CC2)C1c1ccc(C#N)cc1C(=O)NCCS(C)(=O)=O (stereo not drawn) [Example 1.26]	4.6
CN(Cc1cnn(C)c1)C(=O)c1cc(C#N)ccc1C1C2=C(CCC2=O)N(c2cccc(C(F)(F)F)c2)C(=O)N1C (stereo not drawn) [Example 1.27]	< 1
CN(C)CCNC(=O)c1cc(C#N)ccc1C1C2=C(CCC2=O)N(c2cccc(C(F)(F)F)c2)C(=O)N1C (stereo not drawn) [Example 1.29]	4.8
CN1C(=O)N(c2cccc(C(F)(F)F)c2)C2=C(C(=O)CC2)C1c1ccc(C#N)cc1C(=O)N1CCN(C2CC2)CC1 (stereo not drawn) [Example 1.33]	10.5
CN1C(=O)N(c2cccc(C(F)(F)F)c2)C2=C(C(=O)CC2)C1c1ccc(C#N)cc1C(=O)N1CCN2CCOCC2C1 (stereo not drawn) [Example 1.35]	16.2
CN1C(=O)N(c2cccc(C(F)(F)F)c2)C2=C(C(=O)CC2)C1c1ccc(C#N)cc1C(=O)NCc1ccco1 (stereo not drawn) [Example 1.36]	2.2
CN1C(=O)N(c2cccc(C(F)(F)F)c2)C2=C(C(=O)CC2)C1c1ccc(C#N)cc1C(=O)NCc1ccoc1 (stereo not drawn) [Example 1.37]	3.4
CN1C(=O)N(c2cccc(C(F)(F)F)c2)C2=C(C(=O)CC2)C1c1ccc(C#N)cc1C(=O)NCc1ccno1 (stereo not drawn) [Example 1.39]	1.9
CN1C(=O)N(c2cccc(C(F)(F)F)c2)C2=C(C(=O)CC2)C1c1ccc(C#N)cc1C(=O)NCc1cnco1 (stereo not drawn) [Example 1.40]	1
CN1C(=O)N(c2cccc(C(F)(F)F)c2)C2=C(C(=O)CC2)C1c1ccc(C#N)cc1C(=O)NCc1cnoc1 (stereo not drawn) [Example 1.42]	1.9
CN1C(=O)N(c2cccc(C(F)(F)F)c2)C2=C(C(=O)CC2)C1c1ccc(C#N)cc1C(=O)NCc1ccccc1 (stereo not drawn) [Example 1.45]	5.3
CN1C(=O)N(c2cccc(C(F)(F)F)c2)C2=C(C(=O)CC2)C1c1ccc(C#N)cc1C(=O)NCc1cccnc1 (stereo not drawn) [Example 1.46]	3.9
CN1C(=O)N(c2cccc(C(F)(F)F)c2)C2=C(C(=O)CC2)C1c1ccc(C#N)cc1C(=O)NCc1ccccn1 (stereo not drawn) [Example 1.47]	4.2
